Patent US12594339B2, “Lipid prodrugs of JAK inhibitors and uses thereof” (Seaport Therapeutics, Inc., priority 2019, dated 2026)

Test: Lymphatic transport assay in mesenteric lymph-duct cannulated rats
Format: in vivo, rat
Conditions: marked with asterisk: analytical procedure without a hydrolysis step (intact lipid prodrug), intraduodenal infusion, anaesthetised mesenteric lymph-duct cannulated rats
Protocol: In order to assess the lymphatic transport of disclosed lipid prodrugs in rats, the mesenteric lymph ducts of the rats used in this study were cannulated to allow continual collection of mesenteric lymph. Lipid formulations containing the compound of interest were then administered to the animals, lymph was collected, and drug concentrations in the lymph samples were quantified.
Lipid-based formulations of the compounds of the invention or control compounds were prepared as previously described (Trevaskis, N. L. et al., Pharmaceutical Research, 2005, 22(11), 1863-1870, WO 2016/023082, and WO 2017/041139, hereby incorporated by reference).
In brief, either 1 or 2 mg of test prodrug, 40 mg oleic acid and 25 mg Tween 80 were mixed in a glass vial and incubated at 37° C. for 12-18 h to equilibrate. An aqueous phase consisting of 5.6 ml phosphate buffered saline (PBS, pH 7.4) was subsequently added to the lipid phase (tofacitinib was dissolved in PBS for the preparation of tofacitinib-containing formulations) and the formulation emulsified by ultrasonication with a Misonix XL 2020 ultrasonic processor (Misonix, Farmingdale, NY, USA) equipped with a 3.2-mm microprobe tip running at 30% of the maximal amplitude of 240 μm and a frequency of 20 kHz for 2 min at room temperature. Doses for administering to more than one animal can be prepared in one batch by suitably increasing the quantities given above. Drug/prodrug concentrations in all formulations were verified using HPLC-MS.
Male Sprague-Dawley (SD) rats were selected for the lymphatic transport studies. Rats (typically 240-320 g) were maintained on a standard diet and fasted overnight with free access to water prior to experiments.
Anesthetized rats were placed on a heated pad at 37° C. and cannulas inserted into the duodenum (for formulation administration and rehydration), mesenteric lymph duct (for lymph collection), and carotid artery (in cases where blood collection was conducted). Post-surgery, rats were re-hydrated for 0.5 h via intraduodenal infusion of normal saline at 2.8 mL/h. The lipid formulations were infused into the duodenum at 2.8 mL/h for 2 h after which, normal saline was infused at 2.8 mL/h for the remainder of the experiment. Lymph was continuously collected for up to 8 h into pre-weighed Eppendorf tubes containing 10 μL of 1,000 IU/mL heparin. The collection tubes were changed hourly and lymph flow was measured gravimetrically. Aliquots of hourly lymph samples were stored at −20° C. prior to assay.
For most compounds, drug concentration in lymph is expressed as total drug and includes free drug and drug associated with different glycerides. Lymph samples were first treated with a lipase or other appropriate conditions to liberate free active agent prior to measurement of active agent levels in the lymph. Treatment with a lipase or other hydrolysis conditions liberates free active agent from any corresponding re-esterified glycerides. Porcine pancreatic lipase is appropriate for this purpose. Alternatively, hydrolysis with 0.5 M NaOH may be used.
For certain compounds, drug concentration was measured for the intact lipid prodrug specifically, without exposing the lymph samples to hydrolysis conditions.
Transport of compounds into lymph during each hourly collection period was calculated from the product of the volume of lymph collected and the measured concentrations in lymph. For fluorescent or fluorescently-labelled compounds, the concentrations of total compound may be measured by fluorescence spectroscopy without hydrolysis.
Table 5 summarizes lymphatic transport of total tofacitinib related compound (% of administered dose) following intraduodenal infusion to anaesthetised, mesenteric lymph-duct cannulated rats. Data are presented as mean±SD when n≥3 or mean± range when n=2. […]

| Compound | Cumulative lymphatic transport % dose |
| --- | --- |
| CCCCCCCCCCCCCCCC(=O)OCC(COC(=O)CCCCCCCCCCCCCCC)OC(=O)CC(C)CCCCCCCCCCC(C)C(=O)n1ccc2c(N(C)[C@H]3CN(C(=O)CC#N)CC[C@H]3C)ncnc21 (stereo partly drawn) [I-39, 2-((15-(4-(((3R,4R)-1-(2-cyanoacetyl)-4-methylpiperidin-3-yl)(methyl)amino)-7H-pyrrolo[2,3-d]pyrimidin-7-yl)-3,14-dimethyl-15-oxopentadecanoyl)oxy)propane-1,3-diyl dipalmitate] | A* (lymphatic transport assay result of greater than 10% (>10%)) |
| CCCCCCCCCCCCCCCC(=O)OCC(COC(=O)CCCCCCCCCCCCCCC)OC(=O)CC(C)CCCCCCC(=O)n1ccc2c(N(C)[C@H]3CN(C(=O)CC#N)CC[C@H]3C)ncnc21 (stereo partly drawn) [I-9, 2-((10-(4-(((3R,4R)-1-(2-cyanoacetyl)-4-methylpiperidin-3-yl)(methyl)amino)-7H-pyrrolo[2,3-d]pyrimidin-7-yl)-3-methyl-10-oxodecanoyl)oxy)propane-1,3-diyl dipalmitate] | B* (lymphatic transport assay result between 1% and 10% (1%-10%)) |

Same assay, conditions: numeric value for parent drug, intraduodenal infusion, anaesthetised mesenteric lymph-duct cannulated rats

| Cumulative lymphatic transport % dose [% dose] | Compound |
| --- | --- |
| <0.3 | C[C@@H]1CCN(C(=O)CC#N)C[C@@H]1N(C)c1ncnc2[nH]ccc12 [Tofacitinib, tofacitinib, reference compound] |

Same assay, conditions: numeric value for parent drug, intraduodenal infusion, anaesthetised mesenteric lymph-duct cannulated rats; listed as tofacitinib

| Cumulative lymphatic transport % dose [% dose] | Compound |
| --- | --- |
| < 0.3 | C[C@@H]1CCN(C(=O)CC#N)C[C@@H]1N(C)c1ncnc2[nH]ccc12 [Tofacitinib, tofacitinib, reference compound] |

Same assay, conditions: total tofacitinib related compound (lymph hydrolysed before assay), intraduodenal infusion, anaesthetised mesenteric lymph-duct cannulated rats, lymph collected up to 8 h

| Compound | Cumulative lymphatic transport % dose |
| --- | --- |
| CCCCCCCCCCCCCCCC(=O)OCC(COC(=O)CCCCCCCCCCCCCCC)OC(=O)CC(C)CCCCCC(=O)n1ccc2c(N(C)[C@H]3CN(C(=O)CC#N)CC[C@H]3C)ncnc21 (stereo partly drawn) [I-7] | B (lymphatic transport assay result between 1% and 10% (1%-10%)) |
| CCCCCCCCCCCCCCCC(=O)OCC(COC(=O)CCCCCCCCCCCCCCC)OC(=O)CC(C)CC(=O)OC(C)OC(=O)n1ccc2c(N(C)[C@H]3CN(C(=O)CC#N)CC[C@H]3C)ncnc21 (stereo partly drawn) [I-40, 1-(1,3-bis(palmitoyloxy)propan-2-yl) 5-(1-((4-(((3R,4R)-1-(2-cyanoacetyl)-4-methylpiperidin-3-yl)(methyl)amino)-7H-pyrrolo[2,3-d]pyrimidine-7-carbonyl)oxy)ethyl) 3-methylpentanedioate] | D (lymphatic transport assay result of less than 0.05% (<0.05%)) |
| CCCCCCCCCCCCCCCC(=O)OCC(COC(=O)CCCCCCCCCCCCCCC)OC(=O)CC(C)CCCCCCC(C)CC(=O)n1ccc2c(N(C)[C@H]3CN(C(=O)CC#N)CC[C@H]3C)ncnc21 (stereo partly drawn) [I-13, 2-((12-(4-(((3R,4R)-1-(2-cyanoacetyl)-4-methylpiperidin-3-yl)(methyl)amino)-7H-pyrrolo[2,3-d]pyrimidin-7-yl)-3,10-dimethyl-12-oxododecanoyl)oxy)propane-1,3-diyl dipalmitate] | A (lymphatic transport assay result of greater than 10% (>10%)) |
| CCCCCCCCCCCCCCCC(=O)OCC(COC(=O)CCCCCCCCCCCCCCC)OC(=O)CC(C)CCCCCCCCC(=O)Oc1c(C)cc(COC(=O)n2ccc3c(N(C)[C@H]4CN(C(=O)CC#N)CC[C@H]4C)ncnc32)cc1C (stereo partly drawn) [I-16, 1-(1,3-bis(palmitoyloxy)propan-2-yl) 12-(4-(((4-(((3R,4R)-1-(2-cyanoacetyl)-4-methylpiperidin-3-yl)(methyl)amino)-7H-pyrrolo[2,3-d]pyrimidine-7-carbonyl)oxy)methyl)-2,6-dimethylphenyl) 3-methyldodecanedioate] | A (lymphatic transport assay result of greater than 10% (>10%)) |
| CCCCCCCCCCCCCCCC(=O)OCC(COC(=O)CCCCCCCCCCCCCCC)OC(=O)CC(C)CCCCCCCC(C)C(=O)Oc1c(C)cc(COC(=O)n2ccc3c(N(C)[C@H]4CN(C(=O)CC#N)CC[C@H]4C)ncnc32)cc1C (stereo partly drawn) [I-15, 12-(1,3-bis(palmitoyloxy)propan-2-yl) 1-(4-(((4-(((3R,4R)-1-(2-cyanoacetyl)-4-methylpiperidin-3-yl)(methyl)amino)-7H-pyrrolo[2,3-d]pyrimidine-7-carbonyl)oxy)methyl)-2,6-dimethylphenyl) 2,10-dimethyldodecanedioate] | A (lymphatic transport assay result of greater than 10% (>10%)) |
| CCCCCCCC/C=C\CCCCCCCC(=O)OCC(COC(=O)CCCCCCC/C=C\CCCCCCCC)OC(=O)CC(C)CCCCCCCCCC(C)CC(=O)n1ccc2c(N(C)[C@H]3CN(C(=O)CC#N)CC[C@H]3C)ncnc21 (stereo partly drawn) [I-33, 2-((15-(4-(((3R,4R)-1-(2-cyanoacetyl)-4-methylpiperidin-3-yl)(methyl)amino)-7H-pyrrolo[2,3-d]pyrimidin-7-yl)-3,13-dimethyl-15-oxopentadecanoyl)oxy)propane-1,3-diyl dioleate] | A (lymphatic transport assay result of greater than 10% (>10%)) |
| CCCCCCCCCCCCCCCC(=O)OCC(COC(=O)CCCCCCCCCCCCCCC)OC(=O)CC(C)CCCCCCCCCCCC(=O)n1ccc2c(N(C)[C@H]3CN(C(=O)CC#N)CC[C@H]3C)ncnc21 (stereo partly drawn) [I-10, 2-((15-(4-(((3R,4R)-1-(2-cyanoacetyl)-4-methylpiperidin-3-yl)(methyl)amino)-7H-pyrrolo[2,3-d]pyrimidin-7-yl)-3-methyl-15-oxopentadecanoyl)oxy)propane-1,3-diyl dipalmitate] | B (lymphatic transport assay result between 1% and 10% (1%-10%)) |
| CCCCCCCCCCCCCCCC(=O)OCC(COC(=O)CCCCCCCCCCCCCCC)OC(=O)CC(C)CCCCCCC(=O)Oc1c(C)cc(COC(=O)n2ccc3c(N(C)[C@H]4CN(C(=O)CC#N)CC[C@H]4C)ncnc32)cc1C (stereo partly drawn) [I-14, 10-(1,3-bis(palmitoyloxy)propan-2-yl) 1-(4-(((4-(((3R,4R)-1-(2-cyanoacetyl)-4-methylpiperidin-3-yl)(methyl)amino)-7H-pyrrolo[2,3-d]pyrimidine-7-carbonyl)oxy)methyl)-2,6-dimethylphenyl) 8-methyldecanedioate] | B (lymphatic transport assay result between 1% and 10% (1%-10%)) |
